Source: the supplement of paper PMC10307832

Columns and labels:
Experiment in all cases: relative viability (nuclei count vs DMSO), 5 days (fraction); higher = more cells survive
AZD1208 + AZD7762 = compound: N[C@@H]1CCCN(c2c(/C=C3\SC(=O)NC3=O)cccc2-c2ccccc2)C1 [AZD1208] + NC(=O)Nc1cc(-c2cccc(F)c2)sc1C(=O)N[C@H]1CCCNC1 [AZD7762] (partner 0.2 µM)
Procedure, shortened: (§1)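 Each reported value is a median over duplicate plates. It expresses relative viability: treated-well nuclei count divided by vehicle-well nuclei count. Lung cancer cell lines in 1536-well plates were dosed by pin tool a day after seeding, alone with one drug or with a fixed anchor-drug dose plus five library-drug doses (not always all listed) in √10 steps, and nuclei were counted after 5 days.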

AZD1208 + Pictilisib = compound: N[C@@H]1CCCN(c2c(/C=C3\SC(=O)NC3=O)cccc2-c2ccccc2)C1 [AZD1208] + CS(=O)(=O)N1CCN(Cc2cc3nc(-c4cccc5[nH]ncc45)nc(N4CCOCC4)c3s2)CC1 [Pictilisib] (partner 1 µM)
Procedure, shortened: as §1

XMD14-99 + Olaparib = compound: CN1CCN(CC1)C2=CC(=C(C=C2)NC3=NC(=C(S3)C(=O)C4=C(C=CC=C4Cl)Cl)N)OC [XMD14-99] + O=C(c1cc(Cc2n[nH]c(=O)c3ccccc23)ccc1F)N1CCN(C(=O)C2CC2)CC1 [Olaparib] (partner 8 µM)
Procedure, shortened: as §1

XMD14-99 + Luminespib = compound: CN1CCN(CC1)C2=CC(=C(C=C2)NC3=NC(=C(S3)C(=O)C4=C(C=CC=C4Cl)Cl)N)OC [XMD14-99] + CCNC(=O)c1noc(-c2cc(C(C)C)c(O)cc2O)c1-c1ccc(CN2CCOCC2)cc1 [Luminespib] (partner 0.01 µM)
Procedure, shortened: as §1

Cell Line | relative viability (AZD1208 + AZD7762; first compound 0.08 µM) | relative viability (AZD1208 + AZD7762; first compound 0.253 µM) | relative viability (AZD1208 + AZD7762; first compound 2.53 µM) | relative viability (AZD1208 + AZD7762; first compound 8 µM) | relative viability (AZD1208 + Pictilisib; first compound 0.08 µM) | relative viability (AZD1208 + Pictilisib; first compound 0.253 µM) | relative viability (AZD1208 + Pictilisib; first compound 0.8 µM) | relative viability (AZD1208 + Pictilisib; first compound 2.53 µM) | relative viability (AZD1208 + Pictilisib; first compound 8 µM) | relative viability (XMD14-99 + Olaparib; first compound 0.08 µM) | relative viability (XMD14-99 + Olaparib; first compound 0.8 µM) | relative viability (XMD14-99 + Olaparib; first compound 2.53 µM) | relative viability (XMD14-99 + Olaparib; first compound 8 µM) | relative viability (XMD14-99 + Luminespib; first compound 0.08 µM) | relative viability (XMD14-99 + Luminespib; first compound 0.8 µM) | relative viability (XMD14-99 + Luminespib; first compound 2.53 µM) | relative viability (XMD14-99 + Luminespib; first compound 8 µM) | relative viability (AZD1208 + AZD7762; first compound 0.8 µM)
NCI-H1651 | 0.458 | 0.54 | 0.439 | 0.472 | 0.395 | 0.556 | 0.394 | 0.38 | 0.408 | 0.187 | 0.203 | 0.147 | 0.157 | 0.939 | 0.647 | 0.63 | 0.644 | –
NCI-H1944 | 0.494 | 0.693 | 0.5 | 0.395 | 0.33 | 0.345 | 0.306 | 0.298 | 0.277 | 0.448 | 0.404 | 0.397 | 0.283 | 0.672 | 0.754 | 0.533 | 0.575 | 0.442
NCI-H1703 | 0.116 | 0.0963 | 0.128 | 0.102 | 0.225 | 0.242 | 0.238 | 0.214 | 0.198 | 0.492 | 0.456 | 0.622 | 0.269 | – | – | – | – | 0.18
Calu-6 | – | – | – | – | 0.784 | 1 | 0.851 | 0.829 | 0.739 | 0.524 | 0.529 | 0.502 | 0.472 | – | – | – | – | –
EBC-1 | – | – | – | – | 0.2 | 0.275 | 0.265 | 0.271 | 0.274 | 0.771 | 0.635 | 0.646 | 0.382 | – | – | – | – | –
A-427 | 0.7 | 0.789 | 0.653 | 0.689 | 0.673 | 0.664 | 0.597 | 0.74 | 0.533 | 0.793 | 0.628 | 0.67 | 0.501 | 1.02 | 1.07 | 0.875 | 0.617 | 0.665
